Data: US20230330254A1 (Regeneron Pharmaceuticals, Inc., priority 2022, published 2023)
Where a SMILES comes first, the peptide text is derived from it. [ ]: non-standard residue; d: D form. The star is where a group is joined. Bip(2'-Et,4'-O(CH2)4NH2) = CCc1cc(OCCCCN)ccc1-c1ccc(C[C@H](N)C(=O)O)cc1; Nva(5-(3,5-Me2Ph)) = Cc1cc(C)cc(CCC[C@H](N)C(=O)O)c1; Ala(1H-tetrazol-5-yl) = N[C@@H](Cc1nnn[nH]1)C(=O)O; αMePhe(2-F) = C[C@](N)(Cc1ccccc1F)C(=O)O; X9 = O=C([C@@H]1CCN(CCc2cnc[nH]2)C1)*; X8 = O=C([C@H]1CCN(CCc2cnc[nH]2)C1)*

How the values were obtained:
human GLP1R [1] = target: T1, human GLP1R (Homo sapiens, UniProt P43220); assay: Human GLP1R cAMP accumulation assay; format: cell-based; set-up: HEK293 cells over-expressing full length human GLP-1R were utilized; expressed in transfected cells; host or cells: HEK293 (HEK293/hGLP1R)
T1 sequence (P43220 24-463): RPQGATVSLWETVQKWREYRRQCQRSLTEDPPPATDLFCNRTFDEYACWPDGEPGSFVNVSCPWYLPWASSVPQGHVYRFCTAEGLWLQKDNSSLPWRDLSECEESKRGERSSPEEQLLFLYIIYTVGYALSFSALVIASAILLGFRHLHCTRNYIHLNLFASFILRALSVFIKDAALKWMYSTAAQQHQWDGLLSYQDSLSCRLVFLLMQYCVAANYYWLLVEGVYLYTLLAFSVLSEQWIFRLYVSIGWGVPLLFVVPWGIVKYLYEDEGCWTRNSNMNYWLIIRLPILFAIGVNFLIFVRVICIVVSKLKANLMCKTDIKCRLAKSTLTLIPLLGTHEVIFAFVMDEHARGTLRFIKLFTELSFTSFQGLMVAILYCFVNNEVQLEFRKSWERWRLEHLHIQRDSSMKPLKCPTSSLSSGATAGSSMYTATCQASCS
Procedure: 8.1 Human GLP1R cAMP Accumulation Assay (Cyclic AMP Determination)
The functional activity of the test compounds for agonizing GLP1R were evaluated using a cell-based assay. For the assay, HEK293 cells over-expressing full length human GLP-1R were utilized and the downstream cAMP accumulation was assessed as a measure of human GLP-1R stimulation. […] Diluted compounds were transferred to OptiPlates (100 nL/well) using an Echo liquid handler. HEK293/hGLP1R cells were thawed in 37° C. water-bath, washed 2 times with HBSS and re-suspended in assay buffer (HBSS+5 mM HEPES+500 μM IBMX+0.1% BSA). […] After centrifugation, the assay plate was incubated at 23° C. for 30 min. The reaction was terminated by adding 10 μL of lysis buffer containing D2-cAMP and a cAMP-antibody from the cyclic AMP immunoassay kit (Cisbio, Cat #62AM4PEJ). […] The levels of cAMP per well were calculated using a standard curve generated by GraphPad Prism. Percent activity was calculated according to the formula (% Activity=100%*(cAMP level-LC)/(HC-LC)). EC50 values were fitted from a four-parameter logistic equation over a 10-point response curve (GraphPad Prism).

human GLP1R [2] = target: T1, human GLP1R; assay: Luciferase reporter assay, HEK293/CRE-Luc/hGLP1R (Example 17); format: cell-based; set-up: engineered to express full-length human GLP1R, cynomolgus GLP1R; expressed in transfected cells; host or cells: HEK293/CRE-Luc; conditions: HEK293/CRE-Luc/hGLP1R; for S/N: highest RLU / RLU of untreated wells; for EC50: payloads and linker-payloads, experiments A-E, M2361 repeated in each, read-out: EC50; for Relative Potency (% M2361 EC50) / Relative Signal:Noise (% M2361): relative to M2361 of the same experiment
Excerpt: (§1) To test the activity of GLP1R agonist payloads, GLP1R agonist linker-payloads (LPs), and anti-GLP1R antibody tethered drug conjugates (ATDCs) of the invention, a cell-based cAMP responsive luciferase reporter assay was developed. To generate the assay cell line, the firefly luciferase gene was placed under the control of a cAMP response element (CRE) located upstream of a minimal promoter and transfected into HEK293 cells and referred to herein as HEK293/CRE-Luc cells.
(§2) Three-fold serial dilutions of free payloads or LPs were prepared in 100% DMSO, transferred to fresh assay media, and added to the cells at a final constant DMSO concentration of 0.2%. The last well in the plate served as a blank control containing only the assay media and 0.2% DMSO (untreated well) and was plotted as a continuation of the 3-fold serial dilution. Four to six hours later, luciferase activity was determined after the addition of One-Glo™ reagent (Promega, Cat #E6130) to each well. Relative light units (RLUs) were measured on an Envision luminometer (PerkinElmer) and EC50 values were determined using a four-parameter logistic equation over a 12-point dose response curve (GraphPad Prism). The signal to noise (S/N) was determined by taking the ratio of the highest RLU on the dose response curve to the RLU in the untreated wells. Data was generated across several experiments (A-E) with M2361 serving as a reference standard in each experiment to calculate the payload relative potency ((M2361 EC50/payload EC50)*100)) and relative S/N ((payload SN/M2361 SN)*100)).

HEK293/CRE-Luc cells = assay: Luciferase reporter assay, HEK293/CRE-Luc cells without GLP1R (Example 17); format: cell-based, human; conditions: HEK293/CRE-Luc cells without hGLP1R, payloads and linker-payloads; for EC50: read-out: EC50
Excerpt: as §1, §2

[3] = HEK293/hGLP1R cells, Table 4, read-out: cAMP EC50

`CCc1cc(OCCCCn2cc(COCCOCCOCCOCCNC(=O)CCC(=O)N3Cc4ccccc4C#Cc4ccccc43)nn2)ccc1-c1ccc(C[C@H](NC(=O)[C@H](CC(=O)O)NC(=O)[C@H](CO)NC(=O)[C@@H](NC(=O)[C@](C)(Cc2ccccc2F)NC(=O)[C@@H](NC(=O)CNC(=O)[C@H](Cc2nn[nH]n2)NC(=O)C(C)(C)C(=O)NCCc2cnc[nH]2)[C@@H](C)O)[C@@H](C)O)C(=O)N[C@@H](CCCc2cc(C)cc(C)c2)C(N)=O)cc1` [LP8, DIBAC-suc-PEG4-triazole-P8] showed an EC50 (human GLP1R [1]; [3]) of 0.412 nM.

With `CCc1cc(OCCCCNC(=O)CNC(=O)CNC(=O)CNC(=O)CNC(=O)[C@H](CO)NC(=O)CCC(=O)N2Cc3ccccc3C#Cc3ccccc32)ccc1-c1ccc(C[C@H](NC(=O)[C@H](CC(=O)O)NC(=O)[C@H](CO)NC(=O)[C@@H](NC(=O)[C@](C)(Cc2ccccc2F)NC(=O)[C@@H](NC(=O)CNC(=O)[C@H](Cc2nn[nH]n2)NC(=O)C(C)(C)C(=O)NCCc2cnc[nH]2)[C@@H](C)O)[C@@H](C)O)C(=O)N[C@@H](CCCc2cc(C)cc(C)c2)C(=O)Nc2ccccc2)cc1` [LP16, DIBAC-suc-SG4-P23] the EC50 (human GLP1R [1]; [3]) was 1.04 nM.

`CCc1cc(OCCCCNC(=O)[C@@H](CO)NC(=O)CNC(=O)CNC(=O)CNC(=O)CNC(=O)COC2C#CCCCCC2)ccc1-c1ccc(C[C@H](NC(=O)[C@H](CC(=O)O)NC(=O)[C@H](CO)NC(=O)[C@@H](NC(=O)C(C)(Cc2ccccc2F)NC(=O)[C@@H](NC(=O)CNC(=O)[C@H](Cc2nn[nH]n2)NC(=O)C(C)(C)C(=O)NCCc2cnc[nH]2)[C@@H](C)O)[C@@H](C)O)C(=O)N[C@@H](CCCc2cc(C)cc(C)c2)C(N)=O)cc1` (stereo partly drawn) [LP19, COT-G4-(R)Ser-P9] gave an EC50 (human GLP1R [1]; [3]) of 0.558 nM.

Compound `CCc1cc(OCCCCNC(=O)CNC(=O)CNC(=O)CNC(=O)CNC(=O)[C@H](CO[C@@H]2OC(CO)[C@@H](O)C(O)C2O)NC(=O)CCC(=O)N2Cc3ccccc3C#Cc3ccccc32)ccc1-c1ccc(C[C@H](NC(=O)[C@H](CC(=O)O)NC(=O)[C@H](CO)NC(=O)[C@@H](NC(=O)[C@](C)(Cc2ccccc2F)NC(=O)[C@@H](NC(=O)CNC(=O)[C@H](Cc2nn[nH]n2)NC(=O)C(C)(C)C(=O)NCCc2cnc[nH]2)[C@@H](C)O)[C@@H](C)O)C(=O)N[C@@H](CCCc2cc(C)cc(C)c2)C(N)=O)cc1` (some centres unmarked) [LP20, DIBAC-suc-(glucose) SG4-P9] has an EC50 (human GLP1R [1]; [3]) of 0.314 nM.

With `CCc1cc(OCCCCNC(=O)CCOCCOCCOCCOCCOCCOCCOCCOCCOCCOCCOCCOCCOCCOCCOCCOCCOCCOCCOCCOCCOCCOCCOCCOCCNC(=O)CCC(=O)N2Cc3ccccc3-c3nnn(CC4OC5OC6C(CO)OC(OC7C(CO)OC(OC8C(CO)OC(OC9C(CO)OC(OC%10C(CO)OC(OC4C(O)C5O)C(O)C%10O)C(O)C9O)C(O)C8O)C(O)C7O)C(O)C6O)c3-c3ccccc32)ccc1-c1ccc(C[C@H](NC(=O)[C@H](CC(=O)O)NC(=O)[C@H](CO)NC(=O)[C@@H](NC(=O)[C@](C)(Cc2ccccc2F)NC(=O)[C@@H](NC(=O)CNC(=O)[C@H](Cc2nn[nH]n2)NC(=O)C(C)(C)C(=O)NCCc2cnc[nH]2)[C@@H](C)O)[C@@H](C)O)C(=O)N[C@@H](CCCc2cc(C)cc(C)c2)C(N)=O)cc1` (some centres unmarked) [LP22, cyclo-dex-trin-triazole-DIBAC-suc-PEG24-P9] the EC50 (human GLP1R [1]) was 2.71 nM.

For `CCc1cc(OCCCCNC(=O)[C@H](CO)NC(=O)CNC(=O)CNC(=O)CNC(=O)CNC(=O)C(CO)NC(=O)CNC(=O)CNC(=O)CNC(=O)CN)ccc1-c1ccc(C[C@H](NC(=O)[C@H](CC(=O)O)NC(=O)[C@H](CO)NC(=O)[C@@H](NC(=O)[C@](C)(Cc2ccccc2F)NC(=O)[C@@H](NC(=O)CNC(=O)[C@H](Cc2nn[nH]n2)NC(=O)C(C)(C)C(=O)NCCc2cnc[nH]2)[C@@H](C)O)[C@@H](C)O)C(=O)N[C@@H](CCCc2cc(C)cc(C)c2)C(N)=O)cc1` (some centres unmarked) [M2945], the S/N (human GLP1R [2]) was 71.8, the EC50 (human GLP1R [2]) was 0.0255 nM and the “Relative Potency (% M2361 EC50)” value (human GLP1R [2]) was 31.4%. The “Relative Signal:Noise (% M2361)” value (human GLP1R [2]) was 99.9%, the S/N (HEK293/CRE-Luc cells) was 1.4 and the EC50 (HEK293/CRE-Luc cells) was > 20 nM.

For `CCc1cc(OCCCCN)ccc1-c1ccc(C[C@H](NC(=O)[C@H](CC(=O)O)NC(=O)[C@H](CO)NC(=O)[C@@H](NC(=O)[C@](C)(Cc2ccccc2F)NC(=O)[C@@H](NC(=O)CNC(=O)[C@H](Cc2nn[nH]n2)NC(=O)[C@]2(C)CCN(CCc3cnc[nH]3)C2=O)[C@@H](C)O)[C@@H](C)O)C(=O)N[C@@H](CCCc2cc(C)cc(C)c2)C(N)=O)cc1` [P14-S], the EC50 (human GLP1R [1]; [3]) was 0.727 nM.

`CCc1cc(OCCCCN)ccc1-c1ccc(C[C@H](NC(=O)[C@H](CC(=O)O)NC(=O)[C@H](CO)NC(=O)[C@@H](NC(=O)[C@](C)(Cc2ccccc2F)NC(=O)[C@@H](NC(=O)CNC(=O)[C@H](Cc2nn[nH]n2)NC(=O)[C@@]2(C)CCN(CCc3cnc[nH]3)C2=O)[C@@H](C)O)[C@@H](C)O)C(=O)N[C@@H](CCCc2cc(C)cc(C)c2)C(N)=O)cc1` [P15] was tested, and the S/N (human GLP1R [2]) was 67.8, the “Relative Potency (% M2361 EC50)” value (human GLP1R [2]) was 40.3% and the “Relative Signal:Noise (% M2361)” value (human GLP1R [2]) was 103.1%. The S/N (HEK293/CRE-Luc cells) was 1.1 and the EC50 (HEK293/CRE-Luc cells) was > 200 nM.

For `CCc1cc(OCCCCN)ccc1-c1ccc(C[C@H](NC(=O)[C@H](CC(=O)O)NC(=O)[C@H](CO)NC(=O)[C@@H](NC(=O)[C@](C)(Cc2ccccc2F)NC(=O)[C@@H](NC(=O)CNC(=O)[C@H](Cc2nn[nH]n2)NC(=O)[C@H]2CCN(CCc3cnc[nH]3)C2)[C@@H](C)O)[C@@H](C)O)C(=O)N[C@@H](CCCc2cc(C)cc(C)c2)C(N)=O)cc1` [P16-S] (X8-[Ala(1H-tetrazol-5-yl)]GT[αMePhe(2-F)]TSD[Bip(2'-Et,4'-O(CH2)4NH2)][Nva(5-(3,5-Me2Ph))]-NH2), the EC50 (human GLP1R [1]; [3]) was 0.544 nM.

For `CCc1cc(OCCCCN)ccc1-c1ccc(C[C@H](NC(=O)[C@H](CC(=O)O)NC(=O)[C@H](CO)NC(=O)[C@@H](NC(=O)[C@](C)(Cc2ccccc2F)NC(=O)[C@@H](NC(=O)CNC(=O)[C@H](Cc2nn[nH]n2)NC(=O)[C@H]2CCN(CCc3cnc[nH]3)C2)[C@@H](C)O)[C@@H](C)O)C(=O)N[C@@H](CCCc2cc(C)cc(C)c2)C(N)=O)cc1` [P16] (X8-[Ala(1H-tetrazol-5-yl)]GT[αMePhe(2-F)]TSD[Bip(2'-Et,4'-O(CH2)4NH2)][Nva(5-(3,5-Me2Ph))]-NH2), the S/N (human GLP1R [2]) was 55.1, the EC50 (human GLP1R [2]) was 0.217 nM and the “Relative Potency (% M2361 EC50)” value (human GLP1R [2]) was 2.5%. For the same compound, the “Relative Signal:Noise (% M2361)” value (human GLP1R [2]) was 83.8%, the S/N (HEK293/CRE-Luc cells) was 1.1 and the EC50 (HEK293/CRE-Luc cells) was > 200 nM.

`CCc1cc(OCCCCN)ccc1-c1ccc(C[C@H](NC(=O)[C@H](CC(=O)O)NC(=O)[C@H](CO)NC(=O)[C@@H](NC(=O)[C@](C)(Cc2ccccc2F)NC(=O)[C@@H](NC(=O)CNC(=O)[C@H](Cc2nn[nH]n2)NC(=O)[C@@H]2CCN(CCc3cnc[nH]3)C2)[C@@H](C)O)[C@@H](C)O)C(=O)N[C@@H](CCCc2cc(C)cc(C)c2)C(N)=O)cc1` [P17-R] (X9-[Ala(1H-tetrazol-5-yl)]GT[αMePhe(2-F)]TSD[Bip(2'-Et,4'-O(CH2)4NH2)][Nva(5-(3,5-Me2Ph))]-NH2) gave an EC50 (human GLP1R [1]; [3]) of 11.2 nM.

`CCc1cc(OCCCCN)ccc1-c1ccc(C[C@H](NC(=O)[C@H](CC(=O)O)NC(=O)[C@H](CO)NC(=O)[C@@H](NC(=O)[C@](C)(Cc2ccccc2F)NC(=O)[C@@H](NC(=O)CNC(=O)[C@@H](N)CCC(N)=O)[C@@H](C)O)[C@@H](C)O)C(=O)N[C@@H](CCCc2cc(C)cc(C)c2)C(N)=O)cc1` [P20, (3S)-4-[[(1S)-1-[[4-[4-(4-aminobutoxy)-2-ethyl-phenyl]phenyl]methyl]-2-[[(1S)-1-carbamoyl-4-(3,5-dimethylphenyl)butyl]amino]-2-oxo-ethyl]amino]-3-[[(2S)-2-[[(2S,3R)-2-[[(2S)-2-[[(2S,3R)-2-[[2-[[(2S)-2,5-diamino-5-oxopentanoyl]amino]acetyl]amino]-3-hydroxy-butanoyl]amino]-3-(2-fluorophenyl)-2-methyl-propanoyl]amino]-3-hydroxybutanoyl]amino]-3-hydroxy-propanoyl]amino]-4-oxo-butanoic acid] was tested, and the EC50 (human GLP1R [1]; [3]) was 0.37 nM.
